Key:
[1] = system: HCT116, a colorectal carcinoma cell line; assay: Tetrazolium dye proliferation assay (MTT assay); format: cell-based; conditions: Homo sapiens, HCT-116, HCT116 cells, inhibition of cell proliferation
Outline: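 HCT116 cells in McCoy's 5A + 10% FCS, plated overnight, then dosed in duplicate with serial dilutions (final DMSO 0.3%) and incubated to growth-curve time points. MTT at 1 mg/ml for 2.5-3 h, formazan in ethanol, A570/650. IC50 by linear regression of log concentration vs % inhibition relative to blank and DMSO controls.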

human cyclin D1-CDK4 = human cyclin D1-CDK4 (Homo sapiens, UniProt P11802); assay: FlashPlate kinase assay, cyclin D1-CDK4, Rb substrate; format: biochemical; conditions: recombinant cyclin D1-CDK4, Rb phosphorylation, 1 μM ATP
Outline: (§1)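 Recombinant human cyclin–CDK complexes, co-expressed in insect cells, phosphorylated His-tagged Rb (aa 386-928) coated on FlashPlates at 10 μg/ml. Reaction used 1 μM ATP plus 4 nM ^33P-ATP and 20 mM MgCl2 for 30 min at room temperature. % inhibition came from scintillation counts against no-enzyme and no-compound wells, and IC50 was the concentration halving radiolabel incorporation.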

human cyclin E-CDK2 = human cyclin E-CDK2 (Homo sapiens, UniProt P24941); assay: FlashPlate kinase assay, cyclin E-CDK2, Rb substrate; format: biochemical; conditions: recombinant cyclin E-CDK2, Rb phosphorylation, 1 μM ATP
Outline: as §1

human cyclin B-CDK1 = human cyclin B-CDK1 (Homo sapiens, UniProt P06493); assay: FlashPlate kinase assay, cyclin B-CDK1, Rb substrate; format: biochemical; conditions: recombinant cyclin B-CDK1, Rb phosphorylation, 1 μM ATP
Outline: as §1

Chain of human cyclin B-CDK1 (P06493 whole entry): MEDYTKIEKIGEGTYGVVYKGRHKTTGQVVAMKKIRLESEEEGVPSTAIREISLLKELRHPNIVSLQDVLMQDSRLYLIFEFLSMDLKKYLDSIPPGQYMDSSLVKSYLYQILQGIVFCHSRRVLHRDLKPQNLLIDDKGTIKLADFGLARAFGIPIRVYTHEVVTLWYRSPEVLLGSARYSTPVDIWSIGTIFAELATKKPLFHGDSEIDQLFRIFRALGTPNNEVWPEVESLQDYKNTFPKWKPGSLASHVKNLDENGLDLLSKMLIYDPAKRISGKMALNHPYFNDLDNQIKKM
Chain of human cyclin B-CDK1 (P14635 whole entry partner): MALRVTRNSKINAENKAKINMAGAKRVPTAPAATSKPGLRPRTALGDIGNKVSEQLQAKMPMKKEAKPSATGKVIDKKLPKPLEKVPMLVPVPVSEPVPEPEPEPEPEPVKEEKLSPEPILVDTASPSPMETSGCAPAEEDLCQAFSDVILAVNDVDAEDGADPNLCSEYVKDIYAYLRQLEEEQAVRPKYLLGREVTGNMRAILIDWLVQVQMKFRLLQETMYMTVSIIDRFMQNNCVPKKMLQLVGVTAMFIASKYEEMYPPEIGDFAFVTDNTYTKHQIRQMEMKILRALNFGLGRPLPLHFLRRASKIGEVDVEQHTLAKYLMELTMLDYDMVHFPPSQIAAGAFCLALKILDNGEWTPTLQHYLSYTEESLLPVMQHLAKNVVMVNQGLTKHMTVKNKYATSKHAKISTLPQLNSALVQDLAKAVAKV
Chain of human cyclin D1-CDK4 (P11802 whole entry, the tested form may be a part): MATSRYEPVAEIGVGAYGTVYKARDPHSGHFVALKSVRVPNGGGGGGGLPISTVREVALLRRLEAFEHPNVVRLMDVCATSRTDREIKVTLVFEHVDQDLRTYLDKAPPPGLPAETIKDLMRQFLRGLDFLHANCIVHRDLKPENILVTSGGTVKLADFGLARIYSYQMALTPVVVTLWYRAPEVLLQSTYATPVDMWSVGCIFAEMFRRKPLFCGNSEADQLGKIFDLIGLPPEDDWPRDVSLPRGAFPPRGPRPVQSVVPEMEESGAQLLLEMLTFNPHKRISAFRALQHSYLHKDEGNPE
Chain of human cyclin D1-CDK4 (P24385 whole entry partner, the tested form may be a part): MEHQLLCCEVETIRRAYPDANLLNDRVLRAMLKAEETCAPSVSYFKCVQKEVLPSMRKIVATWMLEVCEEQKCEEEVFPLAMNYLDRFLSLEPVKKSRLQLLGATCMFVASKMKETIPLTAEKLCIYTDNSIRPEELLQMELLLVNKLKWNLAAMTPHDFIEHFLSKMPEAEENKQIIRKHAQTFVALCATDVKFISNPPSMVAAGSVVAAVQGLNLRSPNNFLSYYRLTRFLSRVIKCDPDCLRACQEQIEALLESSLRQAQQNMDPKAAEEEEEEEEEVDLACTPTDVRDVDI

Structure (SMILES)	IC50 [1]	IC50 (human cyclin D1-CDK4)	IC50 (human cyclin E-CDK2)	IC50 (human cyclin B-CDK1)	melting point
CCCc1cc(C(=O)c2sc(Nc3ccc(OCC(C)(C)N(C)C)cc3)nc2N)ccc1O [Example 108, [4-Amino-2-[4-(2-dimethylamino-2-methyl-propoxy)-phenylamino]-thiazol-5-yl]-(4-hydroxy-3-propyl-phenyl)-methanone; Compound With Acetic Acid]	0.518 µM	0.026 µM	0.295 µM	0.291 µM	
CCc1cccc(C(=O)c2sc(Nc3ccc(OC[C@@H]4CCCN4C)cc3)nc2N)c1 [Example 112, (S)-[4-Amino-2-[4-(1-methyl-pyrrolidin-2-ylmethoxy)-phenylamino]-thiazol-5-yl]-(3-ethyl-phenyl)-methanone]	0.419 µM	0.042 µM	2.32 µM	1.89 µM	
Cc1ccc(C(=O)c2sc(Nc3ccc(OC[C@@H]4CCCN4C)cc3)nc2N)cc1F [Example 114, (S)-[4-Amino-2-[4-(1-methyl-pyrrolidin-2-ylmethoxy)-phenylamino]-thiazol-5-yl]-(3-fluoro-4-methyl-phenyl)-methanone]	2.07 µM	0.063 µM	5.03 µM	0.85 µM	
CCCc1cc(C(=O)c2sc(Nc3ccc(OC[C@@H]4CCCN4C)cc3)nc2N)ccc1O [Example 115, (S)-[4-Amino-2-[4-(1-methyl-pyrrolidin-2-ylmethoxy)-phenylamino]-thiazol-5-yl]-(4-hydroxy-3-propyl-phenyl)-methanone Acetate]	0.169 µM	0.027 µM	0.267 µM	0.357 µM	
Nc1nc(Nc2ccc(OCCN3CCCC3)cc2)sc1C(=O)c1cccc(F)c1 [Example 118, [4-Amino-2-[4-(2-pyrrolidin-1-yl-ethoxy)-phenylamino]-thiazol-5-yl]-(3-fluoro-phenyl)-methanone; Compound With Acetic Acid]	0.517 µM	0.062 µM	0.889 µM	0.248 µM	
Nc1nc(Nc2ccc(OCCN3CCCC3)cc2)sc1C(=O)c1ccc(O)c(F)c1 [Example 120, [4-Amino-2-[4-(2-pyrrolidin-1-ylethoxy)-phenylamino]-thiazol-5-yl]-(3-fluoro-4-hydroxy-phenyl)-methanone; Compound With Acetic Acid]	1.63 µM	0.038 µM	0.781 µM	0.422 µM	
CCN(CC)CCOc1ccc(Nc2nc(N)c(C(=O)c3ccc(OC)c(F)c3)s2)cc1 [Example 125, [4-Amino-2-[4-(2-diethylamino-ethoxy)-phenylamino]-thiazol-5-yl]-(3-fluoro-4-methoxy-phenyl)-methanone]	2.22 µM	0.032 µM	6.79 µM	2.18 µM	
CCN(CC)CCOc1ccc(Nc2nc(N)c(C(=O)c3cccc(SC)c3)s2)cc1 [Example 126, [4-Amino-2-[4-(2-diethylamino-ethoxy)-phenylamino]-thiazol-5-yl]-(3-methylsulfanyl-phenyl)-methanone]	3.97 µM	0.047 µM	6.07 µM	1.65 µM	
Nc1nc(Nc2ccc(OCCN3CCCC3)cc2)sc1C(=O)c1cccc(C(F)(F)F)c1 [Example 128, [4-Amino-2-[4-(2-pyrrolidin-1-yl-ethoxy)-phenylamino]-thiazol-5-yl]-(3-trifluoromethyl-phenyl)-methanone]	4.59 µM	0.065 µM	1.31 µM	2.05 µM	
CCNCCOc1ccc(Nc2nc(N)c(C(=O)c3cccc(OC)c3)s2)cc1 [Example 130, [4-Amino-2-[4-(2-ethylamino-ethoxy)-phenylamino]-thiazol-5-yl]-(3-methoxy-phenyl)-methanone]	1.39 µM	0.048 µM	3.33 µM	0.784 µM	
CCNCCOc1ccc(Nc2nc(N)c(C(=O)c3cccc(F)c3)s2)cc1 [Example 131, [4-Amino-2-[4-(2-ethylamino-ethoxy)-phenylamino]-thiazol-5-yl]-(3-fluoro-phenyl)-methanone]	0.693 µM	0.52 µM	0.892 µM	0.298 µM	
CCNCCOc1ccc(Nc2nc(N)c(C(=O)c3ccc4c(c3)OCO4)s2)cc1 [Example 133, [4-Amino-2-[4-(2-ethylamino-ethoxy)-phenylamino]-thiazol-5-yl]-benzo[1,3]dioxol-5-yl-methanone]	3 µM	0.029 µM	3.17 µM	0.338 µM	
CC(C)NCCOc1ccc(Nc2nc(N)c(C(=O)c3ccc4c(c3)OCO4)s2)cc1 [Example 137, [4-Amino-2-[4-(2-isopropylamino-ethoxy)-phenylamino]-thiazol-5-yl]-benzo[1,3]dioxol-5-yl-methanone]	1.73 µM	0.019 µM	2.75 µM	0.457 µM	
COc1cccc(C(=O)c2sc(Nc3ccc(OCCN(C)C)cc3)nc2N)c1 [Example 144, [4-Amino-2-[4-(2-dimethylaminoethoxy)-phenylamino]-thiazol-5-yl]-(3-methoxy-phenyl)-methanone]		0.087 µM	4.54 µM	2.49 µM	130 °C (dec.)
CCN(CC)CCOc1ccc(Nc2nc(N)c(C(=O)c3cccc(OC)c3)s2)cc1 [Example 145, [4-Amino-2-[4-(2-diethylaminoethoxy)-phenylamino]-thiazol-5-yl]-(3-methoxy-phenyl)-methanone]		0.041 µM	0.9 µM	0.219 µM	118 to 123 °C

Now from value to compound:

IC50 [1]	IC50 (human cyclin D1-CDK4)	IC50 (human cyclin E-CDK2)	IC50 (human cyclin B-CDK1)	melting point	Structure (SMILES)
0.491 µM	0.026 µM	0.213 µM	0.24 µM		CCCc1cc(C(=O)c2sc(Nc3ccc(OC[C@@H](C)N(C)C)cc3)nc2N)ccc1O [Example 107, (R)-[4-Amino-2-[4-(2-dimethylamino-propoxy)-phenylamino]-thiazol-5-yl]-(4-hydroxy-3-propyl-phenyl)-methanone; Compound With Acetic Acid]
0.229 µM	0.014 µM	0.207 µM	0.151 µM		CCCc1cc(C(=O)c2sc(Nc3ccc(OCCN4CCCC4)cc3)nc2N)ccc1O [Example 109, [4-Amino-2-[4-(2-pyrrolidin-1-yl-ethoxy)-phenylamino]-thiazol-5-yl]-(4-hydroxy-3-propyl-phenyl)-methanone; Compound With Acetic Acid]
0.291 µM	0.023 µM	0.182 µM	0.177 µM		CCCc1cc(C(=O)c2sc(Nc3ccc(OC[C@@H](C)N4CCCC4)cc3)nc2N)ccc1O [Example 110, (R)-[4-Amino-2-[4-(2-pyrrolidin-1-yl-propoxy)-phenylamino]-thiazol-5-yl]-(4-hydroxy-3-propyl-phenyl)-methanone; Compound With Acetic Acid]
1.07 µM	0.062 µM	3.34 µM	3.9 µM		CN1CCC[C@H]1COc1ccc(Nc2nc(N)c(C(=O)c3cccc(C4CC4)c3)s2)cc1 [Example 113, (S)-[4-Amino-2-[4-(1-methyl-pyrrolidin-2-ylmethoxy)-phenylamino]-thiazol-5-yl]-(3-cyclopropyl-phenyl)-methanone]
1.06 µM	0.06 µM	4.91 µM	1.79 µM		COc1cccc(C(=O)c2sc(Nc3ccc(OC[C@@H](C)N4CCCC4)cc3)nc2N)c1 [Example 121, [R]-[4-Amino-2-[4-(2-pyrrolidin-1-yl-propoxy)-phenylamino]-thiazol-5-yl]-(3-methoxy-phenyl)-methanone; Compound With Acetic Acid]
1.87 µM	0.036 µM	1.66 µM	0.422 µM		CCN(CC)CCOc1ccc(Nc2nc(N)c(C(=O)c3ccc(O)c(F)c3)s2)cc1 [Example 123, [4-Amino-2-[4-(2-diethylamino-ethoxy)-phenylamino]-thiazol-5-yl]-(3-fluoro-4-hydroxy-phenyl)-methanone]
4.19 µM	0.067 µM	0.814 µM	0.6 µM	185 to 190 °C	COc1cccc(C(=O)c2sc(Nc3ccc(OCCn4ccnc4)cc3)nc2N)c1 [Example 146, [4-Amino-2-[4-(2-imidazol-1-yl-ethoxy)-phenylamino]-thiazol-5-yl]-(3-methoxy-phenyl)-methanone]
